# Results as given in patent publication US10189794B2, “Heteroaryl compounds and uses thereof” (Celgene CAR LLC, priority 2013, dated 2019).
# Read-outs that look alike come from different tables or passages of the source.
# Tests used:
# [1] = molecular target: pFGFR4 in MDA-MB-453 cells (Homo sapiens (Human), UniProt P22455, Y367C); experiment: FGFR4 signaling (phospho-FGFR4) in MDA-MB-453 cells; assay type: cell-based; conditions: 1 hr treatment
# Experimental: Huh7 cells were grown in DMEM (Invitrogen, Carlsbad, Calif.) supplemented with 10% FBS (Invitrogen) and 1% Penicillin-Streptomycin (P/S, Lonza, Walkersville, Md.).
# For the MSD and ELISA assays, total FGFR4 antibodies were obtained from R&D Systems (Minneapolis, Minn.) and used at 1:500. For the immunoblotting (Western blotting) assay, total FGFR4 antibody was obtained from Santa Cruz (Santa Cruz, Calif.) and used at 1:1000. Phospho-FGFR antibodies were obtained from Cell Signaling (Danvers, Mass.) or R&D Systems and used at 1:1000. The phopho-FGFR antibody from Cell Signaling was used for immunoblotting, whereas the phopho-FGFR antibody from R&D was used for MSD and ELISA assays. Secondary antibodies were used at 1:10,000. The goat anti-mouse IgG IRDye 800CW antibody was obtained from LiCor Biosciences (Lincoln, Nebr.) and the goat anti-rabbit IgG Alexa Fluor 680 was obtained from Invitrogen. The anti-rabbit Sulfo-tag and anti-streptavidin Sulfo-tag antibodies was obtained from Meso Scale Discovery (Gaithersburg, Md.), and were used at 1:1000 and 1:5000, respectively.
# For MDA-MB-453 cells signaling, cells were grown in 96-well poly-D-lysine plates (BD Bioscience, San Jose, Calif.) to 90% confluence, and were then incubated in low-serum (0.1% FBS) media for 16-18 hr. […] After treatment, the cells were washed with cold PBS (Invitrogen) and were immediately lysed by freeze/thawing 3× in 32 μL of cold Cell Extraction Buffer (Invitrogen) which was supplemented with Complete Protease inhibitors (Roche, Indianapolis, Ind.) and PhosphoSTOP (Roche) phosphatase inhibitors.
# Phospho-protein signals were quantitated using Odyssey Infrared Imaging (Li-Cor Biosciences).
# To assess phospho-FGFR signaling, the blots were probed with anti-Phospho-FGFR (Y653/Y654) and total anti-FGFR antibodies. The phospho-FGFR signal was normalized to total FGFR expression for each sample. […] The normalized data was fitted using a sigmoidal curve analysis program (Graph Pad Prism version 5) with variable Hill slope to determine the EC50 values.
# After treatment, the cells were washed with cold PBS (Invitrogen), and were immediately lysed by freeze/thawing 3× in 32 μL of cold Cell Extraction Buffer (Invitrogen), which was supplemented with Complete Protease inhibitors (Roche) and PhosphoSTOP (Roche) phosphatase inhibitors.
# MSD plates (Meso Scale Discovery) were coated with total FGFR-4 antibodies overnight at 4° C. A lysate (25 μL) was added to the MSD plate overnight at 4° C. The MSD signals were obtained by incubating with a phospho-FGFR antibody (R&D Systems) and an anti-rabbit sulfo-tag antibody (Meso Scale), for 2 hr at room temperature. […] The data was fitted using a sigmoidal curve analysis program (Graph Pad Prism version 5) with variable Hill slope to determine the EC50 values.
# MDA-MB-453 cells were grown in 96-well poly-D-lysine plates (BD Bioscience, San Jose, Calif.) to 90% confluence. The cells were then incubated in low-serum (0.1% FBS) media for 16-18 hr. […] After treatment, the MDA-MB-453 cells were washed with cold PBS (Invitrogen) and were immediately lysed by freeze/thawing 3× in 32 μL of cold Cell Extraction Buffer (Invitrogen), which was supplemented with Complete Protease inhibitors (Roche) and PhosphoSTOP (Roche) phosphatase inhibitors.
# Nunc-immuno plates (96-well; Sigma, St. Louis, Mo.) were coated with total FGFR-4 antibodies overnight at 4° C. A lysate (25 μL) was added to the plate for 2 hr at room temperature. A phospho-FGFR detection antibody (100 μL) was added per well for 2 hr at room temperature, followed by a goat anti-rabbit HRP antibody (100 μL) for 45 min. […] The data was fitted using a sigmoidal curve analysis program (Graph Pad Prism version 5) with variable Hill slope to determine the EC50 values.
# FGFR4-WT = FGFR4-WT (Homo sapiens (Human), UniProt P22455); experiment: Omnia assay for potency assessment against FGFR4 enzyme; assay type: biochemical
# Chain of FGFR4-WT (P22455 22-802): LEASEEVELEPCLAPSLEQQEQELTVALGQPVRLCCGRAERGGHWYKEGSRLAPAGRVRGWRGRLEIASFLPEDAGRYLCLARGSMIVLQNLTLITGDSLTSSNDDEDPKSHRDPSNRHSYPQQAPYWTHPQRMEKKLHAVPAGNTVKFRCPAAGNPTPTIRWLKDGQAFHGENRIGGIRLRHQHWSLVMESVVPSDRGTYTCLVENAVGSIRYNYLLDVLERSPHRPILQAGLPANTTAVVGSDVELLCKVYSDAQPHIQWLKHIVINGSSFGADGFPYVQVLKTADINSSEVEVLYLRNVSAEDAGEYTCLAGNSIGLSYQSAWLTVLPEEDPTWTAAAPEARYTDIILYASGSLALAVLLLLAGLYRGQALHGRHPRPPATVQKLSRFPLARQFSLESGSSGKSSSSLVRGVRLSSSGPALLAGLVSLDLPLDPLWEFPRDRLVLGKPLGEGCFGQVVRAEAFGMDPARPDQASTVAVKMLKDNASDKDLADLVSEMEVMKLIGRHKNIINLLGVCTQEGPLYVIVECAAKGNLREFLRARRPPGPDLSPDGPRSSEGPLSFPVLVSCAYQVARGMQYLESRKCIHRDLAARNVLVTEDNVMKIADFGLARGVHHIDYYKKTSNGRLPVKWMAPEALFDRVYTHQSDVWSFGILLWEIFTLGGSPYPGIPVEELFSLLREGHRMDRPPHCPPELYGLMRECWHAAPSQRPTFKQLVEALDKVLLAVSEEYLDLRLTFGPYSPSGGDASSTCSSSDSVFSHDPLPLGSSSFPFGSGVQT
# Experimental: A 10× stock solution of FGFR4-WT (PR4380C), (from Invitrogen, Carlsbad, Calif.) corresponding to method a in Table 7, was prepared as described below. Alternatively, a 10× stock solution of FGFR4-WT (F01-11G), (SignalChem, Richmond, BC) corresponding to method b in Table 7, was prepared as described below. A solution of 1.4×ATP (AS001A) and 5×Tyr-Sox conjugated peptide substrate (KNZ3101) were prepared in IX kinase reaction buffer consisting of 20 mM Tris, pH 7.5, 5 mM MgCl2, 1 mM EGTA, 5 mM β-glycerophosphate, 5% glycerol (10× stock, KB002A) and 0.2 mM DTT (DS001A). […] The serially diluted compounds were prepared on a Tecan EVO100. A second addition of 10 μl of Tyr-Sox FGFR4 substrate was added to each well and the kinase reactions were started with the addition of 35 μL of 1.4×ATP. The reactions were monitored every 71 seconds for 240 minutes at λex360/λem485 in a Synergy plate reader from BioTek (Winooski, Vt.).
# [2] = molecular target: FGFR4 in MDA-MB-453 cells (Homo sapiens (Human), UniProt P22455, Y367C); experiment: Target occupancy assay with biotinylated covalent probe I-127; assay type: cell-based; conditions: MDA-MB-453 lysate; 2 μM biotinylated probe I-127
# Chain of FGFR4 in MDA-MB-453 cells (P22455 22-802 Y367C): as the sequence (P22455 22-802) above, with Y346C counted along it
# Experimental: In order to assess free FGFR4 protein a biotinylated covalent probe was utilized. […] The reaction was incubated for 2 hr at room temperature. The samples and probe mixture were transferred to a FGFR4-coated MSD plate for 2 hr at room temperature. MSD signals were obtained with an anti-streptavidin Sulfo-tag (Meso Scale) antibody for 1 hr at room temperature.
# If a compound completely (100%) covalently modies FGFR4 no free FGFR4 should be available for covalent modification by the biotinylated probe and subsequent binding to streptavidin and detection.
# MDA-MB-453 cells = experiment: Cell proliferation, MDA-MB-453 (CellTiter Glo); assay type: cell-based; conditions: Homo sapiens; MDA-MB-453; 96 hr; read-out: Cell Proliferation GI50 (nM) MDA
# Experimental: For both MDA-MB-453 and Huh7 cells the starting density was 5000 cells per well. The cells were allowed to settle down for 4 hr and were then treated with 5, 1.25, 0.31, 0.078, 0.020 or 0.005 μM of test compound for: 96 hr for MDA-MB-453 and 120 hr for Huh7 cells. Cell viability was determined by CellTiter Glo (Promega, Madison, Wis.) and the results were converted to cell numbers using a standard curve. The growth inhibition (GI50) values were determined by Graph Pad Prism.
# The results of these experiments show the ability of compounds to inhibit cell growth in FGFR dependant cell lines and are depicted in Table 8, in the columns titled “Cell Proliferation GI50 (nM)”. MDA-MB-453 cell results fall under the heading “MDA” and Huh7 cell results fall under the heading “Huh.”
# Huh7 cells = experiment: Cell proliferation, Huh7 (CellTiter Glo); assay type: cell-based; conditions: Homo sapiens, Huh-7; Huh7; 120 hr; read-out: Cell Proliferation GI50 (nM) HUH
# Experimental: The growth inhibition (GI50) values were determined by Graph Pad Prism.
# pFGFR4 in Huh7 cells = pFGFR4 in Huh7 cells (Homo sapiens (Human), UniProt P22455); experiment: FGFR4 signaling (phospho-FGFR4) in Huh7 cells, MSD; assay type: cell-based; conditions: Meso Scale assay (MSD), 1 hr treatment, read-out: Signaling EC50 (nM) pFGFR4 (Huh)
# Chain of pFGFR4 in Huh7 cells (P22455 22-802): as the sequence (P22455 22-802) above
# [3] = Method A immunoblotting (Western blotting)
# [4] = method a: Invitrogen FGFR4-WT 10 nM, ATP 300 uM, Y10-Sox 10 uM, read-out: FGFR4 IC50
# Chain of pFGFR4 in MDA-MB-453 cells (P22455 22-802 Y367C): as the sequence (P22455 22-802) above, with Y346C counted along it
SMILES,EC50 [2] [nM],GI50 (MDA-MB-453 cells) [nM],GI50 (Huh7 cells) [nM],also measured
C=CC(=O)Nc1cccc(Nc2ncc3c(n2)N(Cc2cccc(NC(=O)CC)c2)C(=O)N(c2c(Cl)c(OC)cc(OC)c2Cl)C3)c1 [I-232],,,,"EC50 [1, 3]: < 100 nM; IC50 (FGFR4-WT; read-out: FGFR4 IC50): < 100 nM"
C=CC(=O)Nc1cc(N2CCN(C(C)=O)CC2)ccc1Nc1ccc2c(c1)N(C)C(=O)N(c1cc(OC)cc(OC)c1)C2 [I-55],101 to 500,101 to 500,101 to 500,IC50 (FGFR4-WT; [4]): < 100 nM
C=CC(=O)Nc1ccccc1Nc1ncc2c(n1)N(Cc1cccnc1)C(=O)N(c1cc(OC)cc(OC)c1)C2 [I-44],101 to 500,101 to 500,> 1000,
C=CC(=O)Nc1ccccc1Nc1ncc2c(n1)N(C)C(=O)N(c1cc(OC)cc(OC)c1)C2 [I-5],101 to 500,501 to 999,> 1000,
C=CC(=O)Nc1cc(N2CCN(CCOC)CC2)ccc1Nc1ncc2c(n1)N(C)C(=O)N(c1cc(OC)cc(OC)c1)C2 [I-20],101 to 500,< 100,,
C=CC(=O)Nc1ccccc1Nc1ncc2c(n1)N(Cc1cccc(N)c1)C(=O)N(c1c(Cl)c(OC)cc(OC)c1Cl)C2 [I-26],< 100,< 100,< 100,
C=CC(=O)NC1CCCCC1Nc1ncc2c(n1)N(CCOC)C(=O)N(c1c(Cl)c(OC)cc(OC)c1Cl)C2 (racemic) [I-61],101 to 500,101 to 500,501 to 999,EC50 (pFGFR4 in Huh7 cells): 101 to 500 nM; IC50 (FGFR4-WT; [4]): < 100 nM
C=CC(=O)NC1CCCCC1Nc1ncc2c(n1)N(C1CC1)C(=O)N(c1c(Cl)c(OC)cc(OC)c1Cl)C2 (racemic) [I-68],,> 1000,> 1000,EC50 (pFGFR4 in Huh7 cells): 501 to 999 nM; IC50 (FGFR4-WT; [4]): 101 to 500 nM
C=CC(=O)Nc1cc(N2CCN(CCOC)CC2)ccc1Nc1ncc2c(n1)N(Cc1cccc(NC(=O)CC)c1)C(=O)N(c1cc(OC)cc(OC)c1)C2 [I-9],< 100,< 100,501 to 999,
C=CC(=O)Nc1ccccc1Nc1ncc2c(n1)N(CCOC)C(=O)N(c1cc(OC)cc(OC)c1)C2 [I-59],101 to 500,501 to 999,> 1000,
C=CC(=O)Nc1ccccc1Nc1ncc2c(n1)N(Cc1csc(C)n1)C(=O)N(c1c(Cl)c(OC)cc(OC)c1Cl)C2 [I-134],< 100,< 100,,
C=CC(=O)NC1CCCCC1Nc1ncc2c(n1)N(CC#N)C(=O)N(c1c(Cl)c(OC)cc(OC)c1Cl)C2 (racemic) [I-47],,,> 1000,EC50 (pFGFR4 in Huh7 cells): 501 to 999 nM; IC50 (FGFR4-WT; [4]): < 100 nM
C=CC(=O)Nc1cc(N(C)CCOC)ccc1Nc1ncc2c(n1)N(C)C(=O)N(c1cc(OC)cc(OC)c1)C2 [I-21],101 to 500,101 to 500,501 to 999,
C=CC(=O)Nc1cc(N(C)CCOC)ccc1Nc1ncc2c(n1)N(Cc1ccccc1)C(=O)N(c1cc(OC)cc(OC)c1)C2 [I-13],101 to 500,101 to 500,> 1000,
C=CC(=O)NC1CCCCC1Nc1ncc2c(n1)N(CC(F)F)C(=O)N(c1c(Cl)c(OC)cc(OC)c1Cl)C2 (racemic) [I-105],,,501 to 999,EC50 (pFGFR4 in Huh7 cells): 101 to 500 nM; IC50 (FGFR4-WT; [4]): 101 to 500 nM
C=CC(=O)Nc1ccccc1Nc1ncc2c(n1)N(Cc1cccc(F)c1)C(=O)N(c1c(Cl)c(OC)cc(OC)c1Cl)C2 [I-12],101 to 500,101 to 500,,

SMILES,EC50 [2] [nM],GI50 (MDA-MB-453 cells) [nM],GI50 (Huh7 cells) [nM],also measured
C=CC(=O)NCc1ccccc1Nc1ncc2c(n1)N(Cc1cccc(NC(=O)CC)c1)C(=O)N(c1c(Cl)c(OC)cc(OC)c1Cl)C2 [I-179],,101 to 500,101 to 500,"EC50 [1, 3]: < 100 nM"
C=CC(=O)Nc1ccc(Nc2ncc3c(n2)N(Cc2cccc(NC(=O)CC)c2)C(=O)N(c2c(Cl)c(OC)cc(OC)c2Cl)C3)cc1 [I-233],,,,"EC50 [1, 3]: < 100 nM; IC50 (FGFR4-WT; method b: SignalChem FGFR4-WT 2.5 nM, ATP 250 uM, Y10-Sox 10 uM, read-out: FGFR4 IC50): < 100 nM"
C=CC(=O)Nc1cc(N2CCOCC2)ccc1Nc1ncc2c(n1)N(C)C(=O)N(c1cc(OC)cc(OC)c1)C2 [I-17],101 to 500,101 to 500,,
C=CC(=O)Nc1ccccc1Nc1ncc2c(n1)N(Cc1ccccc1)C(=O)N(c1c(Cl)c(OC)cc(OC)c1Cl)C2 [I-3],< 100,< 100,< 100,EC50 ([1]; Method C ELISA): < 100 nM
C=CC(=O)NC1CCCCC1Nc1ncc2c(n1)N(Cc1ccccc1)C(=O)N(c1c(Cl)c(OC)cc(OC)c1Cl)C2 (racemic) [I-63],101 to 500,101 to 500,101 to 500,IC50 (FGFR4-WT): < 100 nM
C=CC(=O)Nc1ccccc1CNc1ncc2c(n1)N(Cc1cccc(NC(=O)CC)c1)C(=O)N(c1c(Cl)c(OC)cc(OC)c1Cl)C2 [I-180],,,,EC50 ([1]; Method C ELISA): < 100 nM
C=CC(=O)Nc1cc(N2CCN(CC)CC2)ccc1Nc1ncc2c(n1)N(C)C(=O)N(c1cc(OC)cc(OC)c1)C2 [I-15],101 to 500,< 100,,
C=CC(=O)NC1CCCCC1Nc1ncc2c(n1)N(Cc1cccnc1)C(=O)N(c1c(Cl)c(OC)cc(OC)c1Cl)C2 (racemic) [I-35],101 to 500,101 to 500,501 to 999,IC50 (FGFR4-WT; [4]): < 100 nM
C=CC(=O)NC1CCCCC1Nc1ncc2c(n1)N(CCF)C(=O)N(c1cc(OC)cc(OC)c1Cl)C2 (racemic) [I-111],,,> 1000,EC50 (pFGFR4 in Huh7 cells): > 1000 nM; IC50 (FGFR4-WT; [4]): 501 to 999 nM
C=CC(=O)Nc1ccccc1Nc1ncc2c(n1)N(C)C(=O)N(c1c(Cl)c(OC)cc(OC)c1Cl)C2 [I-2],,< 100,101 to 500,"EC50 [1, 3]: < 100 nM"
C=CC(=O)NC1CCCCC1Nc1ncc2c(n1)N(CC(F)F)C(=O)N(c1cc(OC)cc(OC)c1Cl)C2 (racemic) [I-107],,,> 1000,EC50 (pFGFR4 in Huh7 cells): > 1000 nM; IC50 (FGFR4-WT; [4]): > 1000 nM
C=CC(=O)NC1COCC1Nc1ncc2c(n1)N(C)C(=O)N(c1c(Cl)c(OC)cc(OC)c1Cl)C2 (stereo not drawn) [I-126],< 100,< 100,101 to 500,
C=CC(=O)N[C@H]1CCCC[C@H]1Nc1ncc2c(n1)N(Cc1cscn1)C(=O)N(c1c(Cl)c(OC)cc(OC)c1Cl)C2 [I-114],101 to 500,101 to 500,101 to 500,IC50 (FGFR4-WT; read-out: FGFR4 IC50): < 100 nM
C=CC(=O)Nc1ccccc1Nc1ncc2c(n1)N(Cc1ccc(F)cc1)C(=O)N(c1c(Cl)c(OC)cc(OC)c1Cl)C2 [I-25],101 to 500,< 100,501 to 999,
CCC(=O)Nc1ccccc1Nc1ncc2c(n1)N(Cc1ccccc1)C(=O)N(c1c(Cl)c(OC)cc(OC)c1Cl)C2 [I-236],> 1000,,,
C=CC(=O)NC1CCCCC1Nc1ncc2c(n1)N(C)C(=O)N(c1cc(OC)cc(OC)c1Cl)C2 (racemic) [I-76],,,> 1000,EC50 (pFGFR4 in Huh7 cells): > 1000 nM; IC50 (FGFR4-WT; [4]): 501 to 999 nM
